Experimental data: patent US20250276034A1, “RELEASE-CONTROLLED TOPICAL INJECTION COMPOSITION CONTAINING CYCLIC PEPTIDE AND PREPARATION METHOD THEREFOR” (ORIENTBIO INC., priority 2021, published 2025)
In brackets after ≈: the same amount, converted by molar mass.

What was measured:
[1] = Drug remaining at administration site, non-administration site and in blood after topical injection (LC/MS); assay type: in vivo, mice (C57BL/6)
Experimental: Specifically, the drug level in blood was determined by a liquid-liquid extraction method using methyl tert-butyl ether (MTBE) and LC/MS analysis. Preparation of skin samples at a targeted site and a non-administration site and the liquid-liquid-phase extraction method using MTBE were the same as in Experimental Example 9. […] After initially increasing the proportion of mobile phase B to 20% for 3 minutes to equilibrate the mobile phase, the flow rate of the mobile phase was 0.4 ml/min and the sample injection volume was 3 μl. In addition, as a mass spectrometer, a 4000 Q TRAP Mass Spectrometer system from Applied Bioscience was used.

[2] = Partition coefficient (log P); assay type: physicochemical
[3] = Determination of crystallinity by X-ray diffraction (XRD); assay type: physicochemical; conditions: raw powder and after evaporation or drowning-out crystallization
Experimental: XRD measurement conditions and a crystallization method used in this experiment are as follows.
X-ray diffractometer (model name: MiniFlex, Rigaku, Tokyo, Japan/-X-ray generator: graphite monochromatized Cu Kα radiation (λ=1.5418 Å, 2θ range: from 10° to 30° with a step size of 0.02°/−Scanning rate: 1.0°/min)

[4] = In-vitro skin penetration and skin deposition (Franz diffusion cell); assay type: in vitro ADME; conditions: porcine skin, 200 μg OND-1 in 0.2 ml olive oil, 37° C.
Experimental: A percutaneous absorption diffusion test (Franz diffusion cell) was conducted to determine skin penetration of position 3-substituted cyclosporine derivatives by topical skin application.
Specifically, frozen porcine skin was thawed, followed by removal of subcutaneous fat from the dermis, and then the skin was cut into a disc shape with a diameter of 3 cm. Then, the skin was mounted in a skin permeation device (Franz diffusion, receptor volume: 5 ml, diffusion area: 0.785 cm^2) with the stratum corneum facing an upper donor chamber and the dermis facing a lower receptor chamber. […] Hourly, 500 μl of a receiving solution (PBS containing 0.2% Tween 80, pH: 7.4) was sampled, followed by replenishment with an equal volume of fresh one.
The position 3-substituted cyclosporine derivative in the sampled solution was subjected to quantitative analysis by HPLC, followed by calculation of the average value of five replicates to determine the permeation amount of the position 3-substituted cyclosporine derivative.
After 24 hours of use, the skin was removed from the skin permeation device, washed several times with ethanol, dried, and tape-stripped (10 times with scotch tape) to completely remove any residual drug from the surface thereof. The collected skin samples were lysed by incubation with collagenase type I (Gibco®) solution at 37° C. for 24 hours. Thereafter, samples were obtained by a liquid-liquid phase extraction method using methyl tert-butyl ether (MTBE), followed by quantitative analysis of the position 3-substituted cyclosporine derivative by HPLC to calculate the quantity of drug deposited in the skin.
Details of the liquid-liquid extraction method are as follows. A 200 μl to 400 μl aliquot of each of the lysed skin samples was dispensed, followed by addition of 1.2 ml of MTBE. After high-speed shaking for 10 minutes, an organic solvent layer (1 ml) was separated by centrifugation (13,000 rpm, 3 minutes) and then dried under nitrogen flow for 10 minutes. Thereafter, the organic solvent layer was dissolved with a reconstituted solvent (75% acetonitrile) and filtered through a syringe filter to obtain a sample for analysis.

[5] = Solubility in water; assay type: physicochemical
[6] = Determination of crystallinity by differential scanning calorimetry (DSC); assay type: physicochemical; conditions: raw powder, heating curves
Experimental: Differential scanning calorimetry (DSC) was used to identify a difference in crystallinity between cyclosporine A and OND-1 by determining the melting point, glass transition temperature, and recrystallization of the drugs. DSC measurement conditions were as follows.
DSC (model name: DSC Q2000; manufacturer: TA instruments; purging gas: N2 gas (flow: 70 mL/min); heating rate: 5° C./min; isothermal temperature: 10° C./min; cycle number: 1 (from 20° C. to 200° C.)

C/C=C/C[C@@H](C)[C@@H](O)[C@H]1C(=O)N[C@@H](CC)C(=O)N(C)[C@H](SC)C(=O)N(C)[C@@H](CC(C)C)C(=O)N[C@@H](C(C)C)C(=O)N(C)[C@@H](CC(C)C)C(=O)N[C@@H](C)C(=O)N[C@H](C)C(=O)N(C)[C@@H](CC(C)C)C(=O)N(C)[C@@H](CC(C)C)C(=O)N(C)[C@@H](C(C)C)C(=O)N1C [OND-1, [D-2-methylthio-Sar^3]cyclosporine A]
Analysis of OND-1 level in systemic blood (μg/ml) ([1]; C57BL/6 mice, topical injection of depot solution containing particles of Example 1-B, individual test subjects 1-5): Not detected
Quantity of OND-1 remaining at non-administration site (μg/g) ([1]; C57BL/6 mice, topical injection of depot solution containing particles of Example 1-B, skin, individual test subjects 1-5): Not detected
OND-1 detected in the skin at the site of topical administration ([1]; mice, topical injection): highly detected
OND-1 detected in the surrounding skin or the systemic blood ([1]; mice, topical injection): rarely detected
logP [2]: 3.84
XRD pattern [3]: amorphous XRD pattern
Penetration rate (μg/cm^2) ([4]; 6 hr): 1.3 μg/cm^2
Penetration rate (μg/cm^2) ([4]; 14 hr): 1.1 μg/cm^2
Penetration rate (μg/cm^2) ([4]; 20 hr): 0.2 μg/cm^2
Penetration rate (μg/cm^2) ([4]; 24 hr): 1.1 μg/cm^2
solubility [5]: 10 µg/mL (≈ 8.01 µM)
crystallinity by DSC [6]: amorphous

Cyclosporine A [CsA, reference compound]
XRD pattern [3]: crystalline XRD pattern
crystallinity by DSC [6]: crystalline
